Measurements as given in ChEMBL document CHEMBL4673380, “Novel Pyrimidinones as SHP2 Antagonists for Treating Cancer” (ACS Med Chem Lett, 2021).

Tests used:
[1] = molecular target: T1, Tyrosine-protein phosphatase non-receptor type 11 (Homo sapiens, UniProt Q06124); test: Antagonist activity at SHP2 in human KYSE520 cells assessed as inhibition of ERK1/2 phosphorylation incubated for 2 hrs; assay type: cell-based
T1 sequence (Q06124 whole entry): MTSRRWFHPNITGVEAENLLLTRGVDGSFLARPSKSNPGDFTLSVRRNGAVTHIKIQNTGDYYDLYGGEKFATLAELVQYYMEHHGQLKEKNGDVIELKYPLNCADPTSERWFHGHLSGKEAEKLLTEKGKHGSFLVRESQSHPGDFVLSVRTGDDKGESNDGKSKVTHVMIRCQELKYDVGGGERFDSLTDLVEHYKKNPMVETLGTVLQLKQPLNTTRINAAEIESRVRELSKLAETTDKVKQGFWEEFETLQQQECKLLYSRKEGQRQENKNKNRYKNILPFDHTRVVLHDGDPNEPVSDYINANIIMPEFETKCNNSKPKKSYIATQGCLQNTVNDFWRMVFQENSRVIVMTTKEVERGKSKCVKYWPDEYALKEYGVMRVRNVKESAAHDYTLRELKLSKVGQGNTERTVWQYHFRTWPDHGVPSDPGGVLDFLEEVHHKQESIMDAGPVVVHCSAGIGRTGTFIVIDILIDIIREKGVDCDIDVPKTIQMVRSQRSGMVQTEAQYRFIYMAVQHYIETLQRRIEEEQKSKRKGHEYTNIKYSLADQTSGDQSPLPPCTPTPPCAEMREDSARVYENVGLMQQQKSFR

[2] = molecular target: T1, Tyrosine-protein phosphatase non-receptor type 11; test: Antagonist activity at recombinant human N-terminal His6-tagged full length SHP2 expressed in Escherichia coli using DiFMUP as substrate measured after 60 mins in presence of IRS1-2pY peptide by fluorescence assay

SMILES | IC50 [1] [nM] | IC50 [2] [nM]
Cc1c(N2CCC3(CC2)Oc2ccccc2[C@H]3N)nc(C)n(-c2cccc(Cl)c2Cl)c1=O | 6.6 | 
Cc1nc(N2CCC3(CC2)Cc2ccccc2[C@H]3N)cc(=O)n1-c1cccc(Cl)c1Cl | 5 | 
Cc1c(N2CCC3(CC2)Cc2ncccc2[C@@H]3N)nc(C)n(-c2cccc(Cl)c2Cl)c1=O | 5 | 1
Cc1c(F)ccc(-n2c(C)nc(N3CCC4(CC3)Cc3ccccc3[C@H]4N)c(C)c2=O)c1Cl | 7 | 
Cc1c(N2CCC3(CC2)Cc2ccccc2[C@H]3N)nc(C)n(-c2ccc(F)c(Cl)c2Cl)c1=O | 4 | 
Cc1c(N2CCC3(CC2)Cc2ccccc2[C@H]3N)nc(C)n(-c2cccc(Cl)c2Cl)c1=O | 2 | 
